In PubChem BioAssay (NCI):
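Cultured in 96-well plates, cells were exposed to test compound for 48 hours across five concentrations. At the GI50, growth is halved. The concentration for full growth arrest is given as TGI.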

How the values were obtained:
Assay in all cases: growth of human tumour cells (NCI), 48 h
786-0 renal = tested on: 786-0 renal
A498 renal = tested on: A498 renal
A549 NSCLC = tested on: A549 NSCLC
ACHN renal = tested on: ACHN renal
BT-549 breast = tested on: BT-549 breast
CCRF-CEM leukemia = tested on: CCRF-CEM leukemia
COLO 205 colon = tested on: COLO 205 colon
DU-145 prostate = tested on: DU-145 prostate
EKVX NSCLC = tested on: EKVX NSCLC
HCC-2998 colon = tested on: HCC-2998 colon
HCT-116 colon = tested on: HCT-116 colon
HCT-15 colon = tested on: HCT-15 colon
HOP-62 NSCLC = tested on: HOP-62 NSCLC
HS 578T breast = tested on: HS 578T breast
HT29 colon = tested on: HT29 colon
IGROV1 ovarian = tested on: IGROV1 ovarian
K-562 leukemia = tested on: K-562 leukemia
KM12 colon = tested on: KM12 colon
LOX IMVI melanoma = tested on: LOX IMVI melanoma
M14 melanoma = tested on: M14 melanoma
MALME-3M melanoma = tested on: MALME-3M melanoma
MCF7 breast = tested on: MCF7 breast
MDA-MB-231 breast = tested on: MDA-MB-231 breast
MDA-MB-435 = tested on: MDA-MB-435
NCI-H226 lung = tested on: NCI-H226 lung
NCI-H23 lung = tested on: NCI-H23 lung
NCI-H460 lung = tested on: NCI-H460 lung
NCI-H522 lung = tested on: NCI-H522 lung
NCI/ADR-RES ovarian = tested on: NCI/ADR-RES ovarian
OVCAR-3 ovarian = tested on: OVCAR-3 ovarian
OVCAR-4 ovarian = tested on: OVCAR-4 ovarian
OVCAR-5 ovarian = tested on: OVCAR-5 ovarian
OVCAR-8 ovarian = tested on: OVCAR-8 ovarian
PC-3 prostate = tested on: PC-3 prostate
RPMI-8226 leukemia = tested on: RPMI-8226 leukemia
RXF 393 renal = tested on: RXF 393 renal
SF-268 CNS = tested on: SF-268 CNS
SF-295 CNS = tested on: SF-295 CNS
SF-539 CNS = tested on: SF-539 CNS
SK-MEL-2 melanoma = tested on: SK-MEL-2 melanoma
SK-MEL-28 melanoma = tested on: SK-MEL-28 melanoma
SK-MEL-5 melanoma = tested on: SK-MEL-5 melanoma
SK-OV-3 ovarian = tested on: SK-OV-3 ovarian
SN12C renal = tested on: SN12C renal
SNB-19 CNS = tested on: SNB-19 CNS
SNB-75 CNS = tested on: SNB-75 CNS
SR leukemia = tested on: SR leukemia
SW-620 colon = tested on: SW-620 colon
T-47D breast = tested on: T-47D breast
TK-10 renal = tested on: TK-10 renal
U251 CNS = tested on: U251 CNS
UACC-257 melanoma = tested on: UACC-257 melanoma
UACC-62 melanoma = tested on: UACC-62 melanoma
UO-31 renal = tested on: UO-31 renal
HOP-92 NSCLC = tested on: HOP-92 NSCLC

`CCN(CC)CCCC(C)Nc1nc(C)cc(Nc2ccc3nc(C)cc(N)c3c2)n1` (configuration not stated) was tested, and the GI50 (786-0 renal) was > 100 µM, the TGI (786-0 renal) was > 100 µM and the GI50 (A498 renal) was > 100 µM. The TGI (A498 renal) was > 100 µM, the GI50 (A549 NSCLC) was > 100 µM and the TGI (A549 NSCLC) was > 100 µM. The GI50 (ACHN renal) was > 100 µM, the TGI (ACHN renal) was > 100 µM and the GI50 (BT-549 breast) was 19.2 µM. For the same molecule, the TGI (BT-549 breast) was 56.7 µM, the GI50 (CCRF-CEM leukemia) was 15.3 µM and the TGI (CCRF-CEM leukemia) was 41.6 µM. For the same molecule, the GI50 (COLO 205 colon) was 39.5 µM, the TGI (COLO 205 colon) was > 100 µM and the GI50 (DU-145 prostate) was 42.4 µM. For the same molecule, the TGI (DU-145 prostate) was > 100 µM, the GI50 (EKVX NSCLC) was 53.3 µM and the TGI (EKVX NSCLC) was > 100 µM. The GI50 (HCC-2998 colon) was 26.9 µM, the TGI (HCC-2998 colon) was 82.9 µM and the GI50 (HCT-116 colon) was 32.4 µM. The TGI (HCT-116 colon) was > 100 µM, the GI50 (HCT-15 colon) was > 100 µM and the TGI (HCT-15 colon) was > 100 µM. The GI50 (HOP-62 NSCLC) was 38.9 µM, the TGI (HOP-62 NSCLC) was > 100 µM and the GI50 (HS 578T breast) was 24.6 µM. For the same molecule, the TGI (HS 578T breast) was 65.1 µM, the GI50 (HT29 colon) was 24.4 µM and the TGI (HT29 colon) was 75.2 µM. The GI50 (IGROV1 ovarian) was 28 µM, the TGI (IGROV1 ovarian) was > 100 µM and the GI50 (K-562 leukemia) was 27.1 µM. For the same molecule, the TGI (K-562 leukemia) was 51.5 µM, the GI50 (KM12 colon) was 19.3 µM and the TGI (KM12 colon) was 40.1 µM. For the same molecule, the GI50 (LOX IMVI melanoma) was 18.4 µM, the TGI (LOX IMVI melanoma) was 39.8 µM and the GI50 (M14 melanoma) was 33.7 µM. The TGI (M14 melanoma) was > 100 µM, the GI50 (MALME-3M melanoma) was 24.7 µM and the TGI (MALME-3M melanoma) was 70.2 µM. The GI50 (MCF7 breast) was 31.2 µM, the TGI (MCF7 breast) was 78.3 µM and the GI50 (MDA-MB-231 breast) was 29 µM. The TGI (MDA-MB-231 breast) was 85.8 µM, the GI50 (MDA-MB-435) was 14.5 µM and the TGI (MDA-MB-435) was 29.5 µM. The GI50 (NCI-H226 lung) was > 100 µM, the TGI (NCI-H226 lung) was > 100 µM and the GI50 (NCI-H23 lung) was 32.1 µM. For the same molecule, the TGI (NCI-H23 lung) was > 100 µM, the GI50 (NCI-H460 lung) was 24.3 µM and the TGI (NCI-H460 lung) was 62.8 µM. For the same molecule, the GI50 (NCI-H522 lung) was 23.9 µM, the TGI (NCI-H522 lung) was 91.9 µM and the GI50 (NCI/ADR-RES ovarian) was > 100 µM. The TGI (NCI/ADR-RES ovarian) was > 100 µM, the GI50 (OVCAR-3 ovarian) was 32.1 µM and the TGI (OVCAR-3 ovarian) was 96.9 µM. The GI50 (OVCAR-4 ovarian) was 20.9 µM, the TGI (OVCAR-4 ovarian) was 60.8 µM and the GI50 (OVCAR-5 ovarian) was 45.8 µM. For the same molecule, the TGI (OVCAR-5 ovarian) was > 100 µM, the GI50 (OVCAR-8 ovarian) was 84.5 µM and the TGI (OVCAR-8 ovarian) was > 100 µM. For the same molecule, the GI50 (PC-3 prostate) was 12.4 µM, the TGI (PC-3 prostate) was 37.8 µM and the GI50 (RPMI-8226 leukemia) was 4.52 µM. The TGI (RPMI-8226 leukemia) was 23 µM, the GI50 (RXF 393 renal) was 55.1 µM and the TGI (RXF 393 renal) was > 100 µM. The GI50 (SF-268 CNS) was 22.1 µM, the TGI (SF-268 CNS) was 50.9 µM and the GI50 (SF-295 CNS) was 0.0287 µM. The TGI (SF-295 CNS) was 28.7 µM, the GI50 (SF-539 CNS) was 20.8 µM and the TGI (SF-539 CNS) was 43.6 µM. The GI50 (SK-MEL-2 melanoma) was 56.6 µM, the TGI (SK-MEL-2 melanoma) was > 100 µM and the GI50 (SK-MEL-28 melanoma) was 24.3 µM. The TGI (SK-MEL-28 melanoma) was 50.1 µM, the GI50 (SK-MEL-5 melanoma) was > 100 µM and the TGI (SK-MEL-5 melanoma) was > 100 µM. The GI50 (SK-OV-3 ovarian) was > 100 µM, the TGI (SK-OV-3 ovarian) was > 100 µM and the GI50 (SN12C renal) was 37 µM. For the same molecule, the TGI (SN12C renal) was > 100 µM, the GI50 (SNB-19 CNS) was 24.7 µM and the TGI (SNB-19 CNS) was 97 µM. The GI50 (SNB-75 CNS) was 19.8 µM, the TGI (SNB-75 CNS) was > 100 µM and the GI50 (SR leukemia) was 0.024 µM. For the same molecule, the TGI (SR leukemia) was 22.8 µM, the GI50 (SW-620 colon) was 35.8 µM and the TGI (SW-620 colon) was > 100 µM. The GI50 (T-47D breast) was 28.6 µM, the TGI (T-47D breast) was 99.4 µM and the GI50 (TK-10 renal) was > 100 µM. The TGI (TK-10 renal) was > 100 µM, the GI50 (U251 CNS) was 26.4 µM and the TGI (U251 CNS) was 98.7 µM. The GI50 (UACC-257 melanoma) was 36.4 µM, the TGI (UACC-257 melanoma) was > 100 µM and the GI50 (UACC-62 melanoma) was 39.2 µM. The TGI (UACC-62 melanoma) was > 100 µM, the GI50 (UO-31 renal) was 86.1 µM and the TGI (UO-31 renal) was > 100 µM.
With `COc1ccc(C(=O)/C=C/c2cc3c(c(OC)c2)OCC(=O)N3)cc1` the GI50 (786-0 renal) was 3.36 µM, the TGI (786-0 renal) was > 100 µM and the GI50 (DU-145 prostate) was 2.74 µM. The TGI (DU-145 prostate) was > 100 µM, the GI50 (HCT-15 colon) was 1.92 µM and the TGI (HCT-15 colon) was > 100 µM. For the same molecule, the GI50 (HOP-62 NSCLC) was 3.73 µM, the TGI (HOP-62 NSCLC) was > 100 µM and the GI50 (HOP-92 NSCLC) was 1.27 µM. The TGI (HOP-92 NSCLC) was 17.7 µM, the GI50 (HS 578T breast) was 3.63 µM and the TGI (HS 578T breast) was > 100 µM. The GI50 (MCF7 breast) was 2.32 µM, the TGI (MCF7 breast) was > 100 µM and the GI50 (MDA-MB-435) was 3.11 µM. The TGI (MDA-MB-435) was > 100 µM, the GI50 (NCI-H226 lung) was 3.88 µM and the TGI (NCI-H226 lung) was > 100 µM. For the same molecule, the GI50 (NCI/ADR-RES ovarian) was 3.14 µM, the TGI (NCI/ADR-RES ovarian) was > 100 µM and the GI50 (OVCAR-8 ovarian) was 2.85 µM. For the same molecule, the TGI (OVCAR-8 ovarian) was > 100 µM, the GI50 (SF-268 CNS) was 3.42 µM and the TGI (SF-268 CNS) was > 100 µM. The GI50 (SF-295 CNS) was 4.57 µM, the TGI (SF-295 CNS) was > 100 µM and the GI50 (SK-MEL-5 melanoma) was 2.88 µM. The TGI (SK-MEL-5 melanoma) was > 100 µM, the GI50 (SNB-19 CNS) was 3.26 µM and the TGI (SNB-19 CNS) was > 100 µM. For the same molecule, the GI50 (SNB-75 CNS) was 1.66 µM, the TGI (SNB-75 CNS) was 11.5 µM and the GI50 (SR leukemia) was 1.05 µM. For the same molecule, the TGI (SR leukemia) was > 100 µM.
